In the experiment the target is STING (Homo sapiens, UniProt Q86WV6, G230A/H232R/R293Q/R71H). In words: STING reporter assay: THP1-Dual KO-IFNAR2 cells stimulated with 2′3′cGAMP, luciferase reporter activity. It is filed as cell-based. The conditions noted are these: 15 μM 2′3′cGAMP, 24h. As for the experimental part: STING pathway activation by the compounds described herein were measured using THP1-Dual™ cells (KO-IFNAR2).
THP1-Dual™ KO-IFNAR2 Cells (obtained from invivogen) were maintained in RPMI, 10% FCS, 5 ml P/S, 2 mM L-glut, 10 mM Hepes, and 1 mM sodium pyruvate. Compounds were spotted in empty 384 well tissue culture plates (Greiner 781182) by Echo for a final concentration of 0.0017-100 μM. Cells were plated into the TC plates at 40 μL per well, 2×10E6 cells/mL. For activation with STING ligand, 2′3′cGAMP (MW 718.38, obtained from Invivogen), was prepared in Optimem media.
The following solutions were prepared for each 1×384 plate: • Solution A: 2 mL Optimem with one of the following stimuli: • 60 uL of 10 mM 2′3′cGAMP ->150 μM stock • Solution B: 2 mL Optimem with 60 μL Lipofectamine 2000->Incubate 5 min at RT
2 mL of solution A and 2 ml Solution B was mixed and incubated for 20 min at room temperature (RT). 20 uL of transfection solution (A+B) was added on top of the plated cells, with a final 2′3′cGAMP concentration of 15 μM. The plates were then centrifuged immediately at 340 g for 1 minute, after which they were incubated at 37° C., 5% CO2, >98% humidity for 24h. Luciferase reporter activity was then measured. EC50 values were calculated by using standard methods known in the art.
Luciferase reporter assay: 10 μL of supernatant from the assay was transferred to white 384-plate with flat bottom and squared wells. One pouch of QUANTI-Luc™ Plus was dissolved in 25 mL of water. 100 μL of QLC Stabilizer per 25 mL of QUANTI-Luc™ Plus solution was added. 50 μL of QUANTI-Luc™ Plus/QLC solution per well is then added. Luminescence is measured on a Platereader (e.g., Spectramax I3X (Molecular Devices GF3637001)).
Luciferase reporter activity was then measured. EC50 values were calculated by using standard methods known in the art.
In general terms: In a reporter assay the amount or activity of a reporter protein is the signal.

pEC50: −log10 of the molar value.

The text below walks through data of US20230092163A1, “COMPOUNDS AND COMPOSITIONS FOR TREATING CONDITIONS ASSOCIATED WITH STING ACTIVITY” (IFM Due, Inc., priority 2019, published 2023).

Sequence of STING (Q86WV6 whole entry R71H/G230A/H232R/R293Q): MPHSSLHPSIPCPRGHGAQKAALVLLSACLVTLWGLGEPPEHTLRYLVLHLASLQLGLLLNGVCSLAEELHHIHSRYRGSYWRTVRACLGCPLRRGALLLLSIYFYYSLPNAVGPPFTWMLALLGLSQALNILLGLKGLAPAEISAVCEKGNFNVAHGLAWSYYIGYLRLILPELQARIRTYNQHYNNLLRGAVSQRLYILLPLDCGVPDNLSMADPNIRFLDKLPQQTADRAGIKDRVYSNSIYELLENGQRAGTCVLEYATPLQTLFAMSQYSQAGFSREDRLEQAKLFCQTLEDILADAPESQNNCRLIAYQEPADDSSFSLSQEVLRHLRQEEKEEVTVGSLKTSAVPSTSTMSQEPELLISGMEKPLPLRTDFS

As usually defined, the pEC50 is the negative decadic logarithm of the EC50, by convention in mol/L. High values mean a low EC50, low ones a high EC50. Under “numeric bounds”, `O=C(NCCN1CCC(Cc2ccccc2)CC1)Nc1ccc2[nH]ccc2c1` [Compound 294] had a pEC50 of under 4.52.
Still for that read-out and setting: for `O=C(NCCOc1cccc(Br)c1)Nc1ccc2[nH]ccc2c1` [Compound 295] the value was under 4.52.
Still for that read-out and setting: the figure for `O=C(NCc1ccc(OCC(F)(F)F)nc1)Nc1ccc2[nH]ccc2c1` [Compound 296] is under 4.52; for `CCOc1ccc(-c2cc(NC(=O)Nc3ccc4[nH]ccc4c3)on2)cc1` [Compound 297] it is under 4.52; for `O=C(NCCCc1cncc(C(F)(F)F)c1)Nc1ccc2[nH]ccc2c1` [Compound 298] it is under 4.52.
Same read-out and setting: for `O=C(Nc1ccc2[nH]ccc2c1)Nc1cc2ccc(C(F)(F)F)cn2n1` [Compound 299] the value was under 4.52.
`CCS(=O)(=O)c1ccc(CNC(=O)Nc2ccc3[nH]ccc3c2)cn1` [Compound 300] had a negative logarithm of the EC50 (pEC50) (numeric bounds) of under 4.52.
`CCn1cc(CNC(=O)Nc2ccc3[nH]ccc3c2)cn1` [Compound 301] showed a negative-log EC50 (pEC50) (numeric bounds) of under 4.52.
Regarding `O=C(Nc1ccc2[nH]ccc2c1)Nc1cc(C2CCC2)no1` [Compound 302], the pEC50 (class symbols) is 4.00 to 5.30.
`O=C(Nc1cccc(C(F)F)c1)Nc1ccc2[nH]ccc2c1` [Compound 303]: the pEC50 (numeric bounds) was under 4.52.
Still for that read-out and setting: the figure for `O=C(NCCc1ccccc1Br)Nc1ccc2[nH]ccc2c1` [Compound 304] is under 4.52; for `CC(C)(C)c1cc(NC(=O)Nc2ccc3[nH]ccc3c2)on1` [Compound 305] it is under 4.52.
Still for that read-out and setting: for `Cn1cc(NC(=O)Nc2ccc3[nH]ccc3c2)cn1` [Compound 306] the value was under 4.52; for `N#Cc1cc(F)cc(NC(=O)Nc2ccc3[nH]ccc3c2)c1` [Compound 307], under 4.52; for `N#Cc1ccc(OC2CCC(NC(=O)Nc3ccc4[nH]ccc4c3)CC2)cc1` (stereo not drawn) [Compound 308], under 4.52.
Turning to `O=C(Nc1ccc2[nH]ccc2c1)Nc1cc2cccc(C(F)(F)F)n2n1` [Compound 309], the pEC50 (class symbols) is 4.00 to 5.30.
Where the note is “numeric bounds”, `CC1(CNC(=O)Nc2ccc3[nH]ccc3c2)CCC(F)(F)CC1` [Compound 311] gave a pEC50 of under 4.52.
On the same count and under the same terms, the figure for `CN(C)S(=O)(=O)c1cccc(NC(=O)Nc2ccc3[nH]ccc3c2)c1` [Compound 312] is under 4.52.
`CCC(NC(=O)Nc1ccc2[nH]ccc2c1)c1cccc(C(F)(F)F)c1` (stereo not drawn) [Compound 313] had a pEC50 (class symbols) of 4.00 to 5.30.
In turn, `O=C(NCCc1c[nH]c2cc(OC(F)(F)F)ccc12)Nc1ccc2[nH]ccc2c1` [Compound 314] had a negative logarithm of the EC50 (pEC50) (numeric bounds) of under 4.52.
As to `O=C(Nc1cccc(S(=O)(=O)C(F)(F)F)c1)Nc1ccc2[nH]ccc2c1` [Compound 315], for the setting “class symbols”, the pEC50 is 4.00 to 5.30.
With `CC(C)(C)OC(=O)N1CC(CCNC(=O)Nc2ccc3[nH]ccc3c2)C1` [Compound 316], the pEC50 (numeric bounds) is under 4.52.
On the same count and under the same terms, for `O=C(Nc1ccc2[nH]ccc2c1)NC1CCc2ccc(C(F)(F)F)cc21` (stereo not drawn) [Compound 317] the value was under 4.52.
`O=C(NCc1cc(Cl)cc(C(F)(F)F)c1)Nc1ccc2[nH]ccc2c1` [Compound 318] had a pEC50 (class symbols) of 4.00 to 5.30.
Compound `O=C(NCc1ccc(C(F)(F)F)c(Cl)c1)Nc1ccc2[nH]ccc2c1` [Compound 319] had a pEC50 (numeric bounds) of under 4.52.
`O=C(NCc1ccc(Cl)c(C(F)(F)F)c1)Nc1ccc2[nH]ccc2c1` [Compound 320] showed a pEC50 (numeric bounds) of under 4.52.
In the case of `O=C(NCCc1ccc(OC(F)(F)F)cc1)Nc1ccc2[nH]ccc2c1` [Compound 321], under “numeric bounds”, the pEC50 was under 4.52.
On the same count and under the same terms, for `Cc1cc(CNC(=O)Nc2ccc3[nH]ccc3c2)nn1C` [Compound 322] the value was under 4.52.
Same read-out and setting: for `O=C(NCCc1c(F)cccc1Cl)Nc1ccc2[nH]ccc2c1` [Compound 323] the value was under 4.52; for `Cc1ccccc1CCNC(=O)Nc1ccc2[nH]ccc2c1` [Compound 324], under 4.52.
On to `CC(CNC(=O)Nc1ccc2[nH]ccc2c1)c1ccccc1` (stereo not drawn) [Compound 325], for which the pEC50 (numeric bounds) was under 4.52.
Take `O=C(Nc1ccc2[nH]ccc2c1)N[C@@H]1C[C@H]1c1ccccc1` [Compound 326]: the pEC50 (numeric bounds) was under 4.52.
The compound `O=C(NCCc1ccccc1)Nc1ccc2[nH]ccc2c1` [Compound 327] had a pEC50 (numeric bounds) of under 4.52.
On the same count and under the same terms, the figure for `CCCCCNC(=O)Nc1ccc2[nH]ccc2c1` [Compound 328] is under 4.52.
Still for that read-out and setting: for `CC(C)CCNC(=O)Nc1ccc2[nH]ccc2c1` [Compound 329] the value was under 4.52.
Compound `O=C(NCCC1CC1)Nc1ccc2[nH]ccc2c1` [Compound 330] gave a pEC50 (numeric bounds) of under 4.52.
Same read-out and setting: the figure for `O=C(NCC1CCC1)Nc1ccc2[nH]ccc2c1` [Compound 331] is under 4.52.
The same measure, in the same setting: for `CC(C)(C)n1cc(NC(=O)Nc2ccc3[nH]ccc3c2)cn1` [Compound 332] the value was under 4.52.
Still for that read-out and setting: for `O=C(NCc1cnccn1)Nc1ccc2[nH]ccc2c1` [Compound 333] the value was under 4.52; for `O=C(Nc1ccc2[nH]ccc2c1)Nc1ccon1` [Compound 334], under 4.52.
The compound `Cc1cc(C)nc(NC(=O)Nc2ccc3[nH]ccc3c2)c1` [Compound 335] gave a pEC50 (numeric bounds) of under 4.52.
Same read-out and setting: for `O=C(NCc1ccc(F)c(F)c1)Nc1ccc2[nH]ccc2c1` [Compound 336] the value was under 4.52; for `Cc1ccc(CNC(=O)Nc2ccc3[nH]ccc3c2)cc1C` [Compound 337], under 4.52; for `Cc1ccccc1CNC(=O)Nc1ccc2[nH]ccc2c1` [Compound 338], under 4.52.
The same measure, in the same setting: the figure for `Cc1ccc(CNC(=O)Nc2ccc3[nH]ccc3c2)cc1` [Compound 339] is under 4.52; for `Cc1cccc(CNC(=O)Nc2ccc3[nH]ccc3c2)c1` [Compound 340] it is under 4.52; for `O=C(Nc1ccc(Cl)c(F)c1)Nc1ccc2[nH]ccc2c1` [Compound 341] it is under 4.52.
On the same count and under the same terms, for `O=C(Nc1ccc(F)c(F)c1)Nc1ccc2[nH]ccc2c1` [Compound 342] the value was under 4.52.
For the setting “class symbols”, `O=C(Nc1cccc(OC(F)F)c1)Nc1ccc2[nH]ccc2c1` [Compound 343] had a pEC50 of 4.00 to 5.30.
Same read-out and setting: the figure for `O=C(Nc1ccc(C(F)(F)F)cc1)Nc1ccc2[nH]cc(-c3cn[nH]c3)c2c1` [Compound 345] is 4.00 to 5.30.
On to `O=C(Nc1cccc(S(F)(F)(F)(F)F)c1)Nc1ccc2[nH]ccc2c1` [Compound 346], for which the pEC50 (numeric bounds) was under 4.52.
Same read-out and setting: for `CC(C)c1ccc(NC(=O)Nc2ccc3[nH]ccc3c2)cc1` [Compound 347] the value was under 4.52; for `CCCCCCCCCCCCCCCCNC(=O)Nc1ccc2[nH]ccc2c1` [Compound 348], under 4.52.
Same read-out and setting: for `O=C(NCCSCc1c(Cl)cccc1Cl)Nc1ccc2[nH]ccc2c1` [Compound 349] the value was under 4.52.
Same read-out and setting: for `O=C(NCc1csc(-c2ccc(Cl)cc2)n1)Nc1ccc2[nH]ccc2c1` [Compound 350] the value was under 4.52.
`CCCCCCCCCCCCCCNC(=O)Nc1ccc2[nH]ccc2c1` [Compound 351]: under “numeric bounds”, the pEC50 was under 4.52.
The same measure, in the same setting: the figure for `CCCCCCCCc1ccc(NC(=O)Nc2ccc3[nH]ccc3c2)cc1` [Compound 352] is under 4.52; for `O=C(NCCc1ccc(Br)cc1)Nc1ccc2[nH]ccc2c1` [Compound 353] it is under 4.52; for `O=C(NCCc1cccc(Cl)c1)Nc1ccc2[nH]ccc2c1` [Compound 354] it is under 4.52.
Still for that read-out and setting: for `O=C(NCCc1ccccc1Cl)Nc1ccc2[nH]ccc2c1` [Compound 355] the value was under 4.52.
On the same count and under the same terms, the figure for `Cc1ccc(CCNC(=O)Nc2ccc3[nH]ccc3c2)cc1C` [Compound 356] is under 4.52; for `O=C(Nc1ccc2[nH]ccc2c1)NC1Cc2ccccc2C1` [Compound 357] it is under 4.52; for `CC[C@H](NC(=O)Nc1ccc2[nH]ccc2c1)c1ccccc1` [Compound 358] it is under 4.52.
As for `O=C(Nc1ccc2c(c1)CCC2)Nc1ccc2[nH]ccc2c1` [Compound 359], the pEC50 (numeric bounds) was under 4.52.
On the same count and under the same terms, the figure for `Cc1cc(NC(=O)Nc2ccc3[nH]ccc3c2)ccc1C#N` [Compound 360] is under 4.52.
In the case of `N#Cc1ccc(NC(=O)Nc2ccc3[nH]ccc3c2)cc1` [Compound 361], the pEC50 (numeric bounds) was under 4.52.
Still for that read-out and setting: the figure for `O=C(Nc1ccc2[nH]ccc2c1)Nc1ccccc1Cl` [Compound 362] is under 4.52.
For the setting “numeric bounds”, `CCc1ccccc1NC(=O)Nc1ccc2[nH]ccc2c1` [Compound 363, 1-(2-ethylphenyl)-3-(1H-indol-5-yl)urea] had a pEC50 of under 4.52.
The same measure, in the same setting: for `O=C(Nc1ccc2[nH]ccc2c1)Nc1ccccc1F` [Compound 364] the value was under 4.52; for `Cc1ccccc1NC(=O)Nc1ccc2[nH]ccc2c1` [Compound 365], under 4.52.
Still for that read-out and setting: for `Cn1cc(-c2c[nH]c3ccc(NC(=O)Nc4ccc(C(F)(F)F)cc4)cc23)cn1` [Compound 366] the value was under 4.52.
In the case of `N#Cc1cc2cc(NC(=O)Nc3ccc(C(F)(F)F)cc3)ccc2[nH]1` [Compound 370], the pEC50 (class symbols) is 4.00 to 5.30.
